Legend:
[1] = test system: zymosan-induced PMN leukocyte accumulation; experiment: Zymosan-induced peritonitis in the mouse (PMN leukocytes in peritoneal lavage fluid); format: in vivo; settings: NMRI mice; 5 hours after i.p. zymosan; pemirolast 0.5 mg i.p. with zymosan; atorvastatin sodium 0.35 mg 24 hours and 90 minutes before
Description: The atorvastatin injection was given 24 hours before zymosan was administered i.p. and the atorvastatin injection was given 90 minutes before zymosan was administered […]. Prior to injection, atorvastatin was dissolved at 1 mg/mL in sterile PBS using sonication and warming as needed. […] The number of polymorphonuclear (PMN) leukocytes per mL of lavage fluid was counted by light microscopy (using standard morphological criteria) following staining of nuclei with Tü's solution. Lavage fluid from non-inflamed peritoneal cavities from untreated animals provided baseline levels of PMN leukocytes.

[2] = test system: human macrophage cell-line MonoMac-6 (MM6); experiment: Inhibition of macrophage proliferation (WST-1 reagent); format: cell-based; settings: 48 hours, n=5; for inhibition at 10 µM / inhibition at 30 µM / inhibition at 100 µM: Homo sapiens; for inhibition at 10 µM: MONO-MAC-6, 10 μM drug alone; for inhibition at 30 µM: MONO-MAC-6, 30 μM drug alone; for inhibition at 100 µM: MONO-MAC-6, 100 μM drug alone
Description: Cells from the human macrophage cell-line MonoMac-6 (MM6) (Ziegler-Heitbrock et al, Int. J. Cancer, 41, 456 (1988)) were cultured (37° C./5% CO2) in RPMI-1640 medium supplemented with 1 mM sodium pyruvate, 1× nonessential amino acids, 1-100 μg/mL insulin, 1 mM oxalacetic acid, 100 units/mL penicillin, 100 μg/mL streptomycin and 10% (v/v) fetal bovine serum. At the start of the experiment, MM6 cells were seeded in 96-well plates at a density of 1×10^5 cells/mL (100 μl per well). Proliferation of the MM6 cells was measured using the Cell Proliferation Reagent WST-1 (Roche Diagnostics Scandinavia AB, Bromma, Sweden) or by cell counting using a microscope. The WST-1 reagent is designed to be used for spectrophotometric quantification of e.g. cell growth in proliferation assays and was used according to the manufacturers' instructions. The wavelength for measuring absorbance was 450 nm and the absorbance of all untreated control cells exposed to the WST-1 reagent was between 1.0 and 2.5. Stock solutions of pemirolast (potassium salt; see Example 19 above) and rosuvastatin (sodium salt; see Example 19 above) were made in sterile saline.
Untreated MM6 cells increased from 1×10^5 cells/mL at the start of the experiment to 1.4×10^5±0.06×10^5 cells/mL and 2.3×10^5±0.10×10^5 cells/mL after 24 and 48 hours, respectively (mean values±sem, n=4 for each of the three time-points). The effects of pemirolast and/or rosuvastatin (added at the start of the experiments) on MM6 cell proliferation were studied 48 hours after start of the experiments using the WST-1 reagent described above.
The procedure described in Example 20 was repeated for atorvastatin (sodium salt; received as atorvastatin calcium as a gift from Biocon, Ltd., Bangalore, India and converted into sodium salt by firstly converting the calcium salt into the free acid by addition of aqueous hydrochloric acid and then, after isolation via extraction, adding one equivalent of aqueous NaOH).

[3] = test system: bone marrow-derived cultured mouse mast cells (mMC); experiment: Inhibition of mast cell interferon-γ formation (IgE-receptor cross-linking with TNP-BSA, Cytometric Bead Array); format: cell-based; settings: for mean IFN-γ concentration in supernatants: mMC stimulated with TNP-BSA for 24 hours, n=2
Description: Bone marrow-derived cultured mouse mast cells (mMC) were obtained by culturing bone marrow cells from female C57BL/6 mice. The bone marrow cells (from mouse femurs flushed with PBS) were cultured (37° C./5% CO2) in 10% X-63 enriched conditioned RPMI 1640, supplemented with 10% heat-inactivated fetal bovine serum, 4 mM L-glutamine, 50 μM 2-mercaptoethanol, 1 mM sodium pyruvate, 0.1 mM non-essential amino acids, 10 mM Hepes, 100 units/mL penicillin and 100 μg/mL streptomycin. Development of mast cells was confirmed by toluidine blue staining. The experiments were performed after 6 to 8 weeks of culture. To activate the mMC through cross-linking of cell-surface IgE-receptors, the cultured mMC were initially sensitized for 90 minutes at 37° C. (5% CO2) with a monoclonal mouse anti-TNP IgE-antibody (IgE1-b4, ATCC, Rockville, Md., USA), used as a 15% hybridoma supernatant. Cells were then subjected to two washings with PBS and re-suspended in RPMI-1640 medium supplemented with 0.2% bovine serum albumin (BSA) before the cells (0.5 mL of medium with 1×10^6 cells per mL) were activated by addition of TNP-BSA (Biosearch Technologies, San Francisco, Calif.) with a coupling ratio of 9/1 (the final TNP-BSA concentration was 100 ng/mL). The incubation (37° C./5% CO2) with TNP-BSA was 24 hours. Before the incubation with TNP-BSA, some cells were treated/incubated (37° C./5% CO2) with the test drugs pemirolast (potassium salt purchased from American Custom Chemicals Corporation, San Diego, Calif., USA) and/or rosuvastatin (extracted and purified from commercially available Crestor® tablets and isolated as calcium salt as described in Bioorganic & Medicinal Chemistry, Vol. 5, No. 5, pp 437-444, 1997 by adding CaCl2) 30 minutes prior to addition of TNP-BSA (stock solutions of the drugs were made in sterile saline). For comparison, some experiments were performed without the drug treatments. After the incubations with TNP-BSA, the samples were centrifuged at 4° C. to spin down the cells and the supernatants analysed with regard to content of mouse IFN-γ using the BD™ Cytometric Bead Array (CBA) Mouse Inflammation Kit from BD Biosciences Pharmingen, San Diego, USA (the kit was used according to the manufacturer's instructions).

| Compound | reduction of zymosan-induced PMN leukocyte accumulation compared with untreated animals [1] | inhibition at 10 µM [2] | inhibition at 30 µM [2] | inhibition at 100 µM [2] | inhibition of MM6 proliferation ([2]; 10 μM drug alone) | mean IFN-γ concentration in supernatants ([3]; 3 μM drug alone) | reduction of IFN-γ compared with the untreated cells ([3]; 30 μM drug alone, TNP-BSA 24 hours) | mean IFN-γ concentration in supernatants ([3]; 30 μM drug alone) |
| --- | --- | --- | --- | --- | --- | --- | --- | --- |
| CC(C)c1c(C(=O)Nc2ccccc2)c(-c2ccccc2)c(-c2ccc(F)cc2)n1CC[C@@H](O)C[C@@H](O)CC(=O)O [atorvastatin] | 25.9% | 19.9% | 27% | 54.4% |  |  |  |  |
| Cc1cccn2c(=O)c(-c3nnn[nH]3)cnc12 [pemirolast] | 10.1% |  |  | 9.4% | very similar to that of 100 μM of pemirolast | 2.00 µg/mL | about 3% | 1.74 µg/mL |
| CC(C)c1nc(N(C)S(C)(=O)=O)nc(-c2ccc(F)cc2)c1/C=C/[C@@H](O)C[C@@H](O)CC(=O)O [rosuvastatin] |  | 16.6% | 22.7% | 66.9% |  | 2.26 µg/mL |  | 1.88 µg/mL |

Source: US20100063070A1, “COMBINATION FOR USE IN THE TREATMENT OF INFLAMMATORY DISORDERS” (priority 2006, published 2010)
